Data: patent US6706664B1, “Benzoxazole compounds, process for the preparation thereof and herbicides” (UBE Industries, Ltd., priority 1999, dated 2004)

Experiments:
Parameters in all cases: key: 0: normal development; 1: Less damaged; 2: Slightly damaged; 3: Moderately damaged; 4: Severely damaged; 5: All killed
green foxtail = assay: Foliar spread test for upland field; format: in vivo, Setaria viridis; details: foliar spray 500 ppm, 3 weeks, rank vs non-treated
Procedure, shortened: (§1)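 Crops and weeds grown about 2 weeks in volcanic ash soil in a glasshouse, then sprayed with wettable-powder formulations diluted to 500 ppm in water with 0.5% surfactant. After 3 weeks at 25 °C, injury scored visually 0 (normal) to 5 (all killed).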

common lambsquartes = assay: Foliar spread test for upland field; format: in vivo, Chenopodium album; details: foliar spray 500 ppm, 3 weeks, rank vs non-treated
Procedure, shortened: as §1

sugar beat = assay: Foliar spread test for upland field; format: in vivo; details: foliar spray 500 ppm, 3 weeks, rank vs non-treated
Procedure, shortened: as §1

solgum = assay: Foliar spread test for upland field; format: in vivo; details: foliar spray 500 ppm, 3 weeks, rank vs non-treated
Procedure, shortened: as §1

cotton = assay: Foliar spread test for upland field; format: in vivo; details: foliar spray 500 ppm, 3 weeks, rank vs non-treated
Procedure, shortened: as §1

soybean = assay: Foliar spread test for upland field; format: in vivo; details: foliar spray 500 ppm, 3 weeks, rank vs non-treated
Procedure, shortened: as §1

corn = assay: Foliar spread test for upland field; format: in vivo; details: foliar spray 500 ppm, 3 weeks, rank vs non-treated
Procedure, shortened: as §1

wheat = assay: Foliar spread test for upland field; format: in vivo; details: foliar spray 500 ppm, 3 weeks, rank vs non-treated
Procedure, shortened: as §1

barnyardgrass [1] = assay: Foliar spread test for upland field; format: in vivo, Echinochloa crusgalli; details: foliar spray 500 ppm, 3 weeks, rank vs non-treated
Text: (§2) (0: normal development, 1: Less damaged, 2: Slightly damaged, 3: Moderately damaged, 4: Severely damaged, 5: All killed).
Wagner pots, each having an area of 1/5000 are, were packed with volcanic ash soil and then each seed of corn, soybean, cotton, wheat, solgum, sugar beat, Large crabgrass, barnyardgrass, green foxtail, blackgrass, annual bluegrass, common lambsquartes, livid amaranth, velvetleaf and morning glory was planted, covered with soil and grown in a glass house at an average temperature of […] for about 2 weeks.
Each wettable powder of the desired compounds (I) shown in Table 1 prepared in accordance with Example 2 was diluted to 500 ppm with water containing a surfactant (0.5%) and then uniformly sprayed on the above respective plants.
After these plants were controlled in a glass house at an average temperature of 25° C. for 3 weeks, the herbicidal effects thereof were investigated.
The herbicidal effects were evaluated according to the evaluation method described in the above (1).

monochoria = assay: Herbicidal test for paddy field; format: in vivo, Monochoria vaginalis; details: paddy field pot, 500 g/ha dropwise at 1.5 leaf stage of barnyardgrass, 3 weeks, rank vs non-treated
Procedure, shortened: (§3)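 Flooded pots (3 cm water) of alluvial soil were sown with seeds or tubers, and wettable-powder formulations in 0.05% surfactant water were dripped in at 500 g/ha at the 1.5-leaf stage of barnyardgrass. Plants were kept 3 weeks in a glasshouse at an average 25° C. Damage was scored 0 (normal) to 5 (all killed) against untreated controls.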

bulrush = assay: Herbicidal test for paddy field; format: in vivo, Scrips juncoides; details: paddy field pot, 500 g/ha dropwise at 1.5 leaf stage of barnyardgrass, 3 weeks, rank vs non-treated
Procedure, shortened: as §3

blackgrass = assay: Foliar spread test for upland field; format: in vivo, Alopecurus aegualis; details: foliar spray 500 ppm, 3 weeks, rank vs non-treated
Procedure, shortened: as §1

annual bluegrass = assay: Foliar spread test for upland field; format: in vivo, Poa annua; details: foliar spray 500 ppm, 3 weeks, rank vs non-treated
Procedure, shortened: as §1

velvetleaf = assay: Foliar spread test for upland field; format: in vivo, Abutilon theophrasti; details: foliar spray 500 ppm, 3 weeks, rank vs non-treated
Procedure, shortened: as §1

Large crabgrass = assay: Foliar spread test for upland field; format: in vivo, Digitaria adscendens; details: foliar spray 500 ppm, 3 weeks, rank vs non-treated
Procedure, shortened: as §1

young rice plant = assay: Herbicidal test for paddy field; format: in vivo; details: paddy field pot, 500 g/ha dropwise at 1.5 leaf stage of barnyardgrass, 3 weeks, rank vs non-treated
Procedure, shortened: as §3

flat sedge = assay: Herbicidal test for paddy field; format: in vivo, Cyperus serotinus; details: paddy field pot, 500 g/ha dropwise at 1.5 leaf stage of barnyardgrass, 3 weeks, rank vs non-treated
Method: Wagner pots, each having an area of 1/5000 are, were packed with Ube soil (alluvial soil) and planted with seeds or tubers of young rice plant, barnyardgrass, bulrush, flat sedge and monochoria. Then, the pots were filled with water to a depth of 3 cm.
Each wettable powder of the desired compounds (I) shown in Table 1 prepared in accordance with Example 2 was diluted with water containing a surfactant (0.05%) and subjected to dropwise addition treatment by using pipet so that an effective concentration of the compound (I) in each herbicide became 500 g/ha at 1.5 leaf stage of barnyardgrass.
These plants were controlled in a glass house at an average temperature of 25° C. for 3 weeks, and then herbicidal effects thereof were investigated.
The herbicidal effects are evaluated according to the following 6 ranks as compared with non-treated district.
as §2

livid amaranth = assay: Foliar spread test for upland field; format: in vivo, Amaranthus lividus; details: foliar spray 500 ppm, 3 weeks, rank vs non-treated
Procedure, shortened: as §1

barnyardgrass [2] = assay: Herbicidal test for paddy field; format: in vivo, Echinochloa crusgalli; details: paddy field pot, 500 g/ha dropwise at 1.5 leaf stage of barnyardgrass, 3 weeks, rank vs non-treated
Procedure, shortened: as §3

morning glory = assay: Foliar spread test for upland field; format: in vivo, Ipomoea spps.; details: foliar spray 500 ppm, 3 weeks, rank vs non-treated
Procedure, shortened: as §1

CCCC(Oc1cccc(C#N)c1)c1nc2cc(Cl)ccc2o1 (centres unmarked) [Compound 457]
Effects Green foxtail (green foxtail): 3
Effects Common lambsquarters (common lambsquartes): 3
Effects Sugar beat (sugar beat): 3
Effects Solgum (solgum): 2
Effects Cotton (cotton): 3
Effects Soybean (soybean): 3
Effects Corn (corn): 1
Effects Wheat (wheat): 2
Effects Barnyardgrass (barnyardgrass [1]): 2
Effect Monochoria (monochoria): 4
Effect Bulrush (bulrush): 4
Effects Blackgrass (blackgrass): 2
Effects Annual bluegrass (annual bluegrass): 2
Effects Velvetleaf (velvetleaf): 3
Effects Large crabgrass (Large crabgrass): 2
Effect Young rice plant (young rice plant): 1
Effect Flat sedge (flat sedge): 4
Effects Livid amaranth (livid amaranth): 4
Effect Barnyardgrass (barnyardgrass [2]): 4
Effects Morning glory (morning glory): 3
